Here are results for five molecules from ChEMBL document CHEMBL1130731, “Methyloxime-substituted aminopyrrolidine: a new surrogate for 7-basic group of quinolone” (Bioorg Med Chem Lett, 1998).

Series [1] relates to Acinetobacter calcoaceticus. The series is described as follows: In vitro antimicrobial activity against Acinetobacter calcoaceticus 15473. Format: functional.
The subject of the next series is Bacillus subtilis. The series is described as follows: In vitro antimicrobial activity against Bacillus subtilis ATCC 6633. The class given is functional.
For a further series, the system named is Citrobacter koseri. The series is described as follows: In vitro antimicrobial activity against Citrobacter diversus 2046E. The class given is functional.
For series [2], the system named is Escherichia coli. As to the kind of experiment: In vitro antimicrobial activity against Escherichia coli 10536. The class given is functional.
The test system of series [3] is Escherichia coli. The series is described as follows: In vitro antimicrobial activity against Escherichia coli 3190Y. The class given is functional.
Series [4] has as its system Escherichia coli. As to the kind of experiment: In vitro antimicrobial activity against Escherichia coli 851E. Format: functional.
In series [5] the test system is Escherichia coli. The series is described as follows: In vitro antimicrobial activity against Escherichia coli TEM5 3739E. The class given is functional.
Another series relates to Enterobacter cloacae. As to the kind of experiment: In vitro antimicrobial activity against Enterobacter cloacae p99. Format: functional.
The subject of a further series is Klebsiella aerogenes. The series is described as follows: In vitro antimicrobial activity against Klebsiella aerogenes 1076E. Format: functional.
In a further series the test system is Micrococcus luteus. As to the kind of experiment: In vitro antimicrobial activity against Micrococcus luteus ATCC 9341. Format: functional.
The subject of the next series is Pseudomonas aeruginosa. As to the kind of experiment: In vitro antimicrobial activity against Pseudomonas aeruginosa 1012E. Format: functional.
A further series deals with Salmonella typhimurium. As to the kind of experiment: In vitro antimicrobial activity against Salmonella Typhimurium 14028. The class given is functional, Salmonella enterica subsp. enterica serovar Typhimurium. Particulars: Salmonella enterica.
For series [6], the system named is Staphylococcus epidermidis. The series is described as follows: In vitro antimicrobial activity against Staphylococcus epidermis 178. Format: functional.
The test system of series [7] is Staphylococcus epidermidis. As to the kind of experiment: In vitro antimicrobial activity against Staphylococcus epidermis 887E. Format: functional.
The test system of series [8] is Staphylococcus aureus. The series is described as follows: In vitro antimicrobial activity against Staphylococcus aureus 241. The class given is functional.
In series [9] the test system is Staphylococcus aureus. The series is described as follows: In vitro antimicrobial activity against Staphylococcus aureus 77. Format: functional.
Series [10] relates to Staphylococcus aureus. As to the kind of experiment: In vitro antimicrobial activity against Staphylococcus aureus giorgio. Format: functional.
Series [11] is described as follows: Tmax value after administration of 20 mg/Kg oral dose in rat. The following applies: in vivo. The class given is ADME, organism-based.
Series [12] in a line: Cmax value after administration of 20 mg/Kg oral dose in rat. The class given is ADME, organism-based. Also noted: dose 20 mg/Kg, route oral. Particulars: in vivo.
The nature of series [13]: AUC value after administration of 20 mg/Kg oral dose in rat. Format: ADME, organism-based. The following applies: plasma.
Series [14] has as its system Mus musculus. As to the kind of experiment: In vivo efficacy against systemic infection of Pseudomonas aeruginosa 1912E in mouse. The class given is functional.
Series [15] has as its system Mus musculus. As to the kind of experiment: In vivo efficacy against systemic infection of Staphylococcus aureus giorgio in mouse. The class given is functional.
The nature of series [16]: Tmax value after administration of 4 mg/Kg oral dose in dog. The following applies: in vivo. The class given is ADME, organism-based, Canis lupus familiaris.
Series [17] in a line: in vivo. The following applies: dog, po, 4 mg/kg.
Series [18] can be described thus: in vivo. The following applies: dog, po, 4 mg/kg. The source holds these as a separate data set.
Series [19] is described as follows: Half-life after administration of 4 mg/Kg oral dose in dog. Particulars: in vivo.
Series [20] can be described thus: Bioavailability in dog (dose 4 mg/kg p.o.). The following applies: in vivo, po. Format: ADME, organism-based, Canis lupus familiaris.
The nature of series [21]: Half-life after administration of 20 mg/Kg oral dose in rat. Format: ADME, organism-based. The following applies: in vivo.
Series [22] is described as follows: Bioavailability in rat (dose 20 mg/kg p.o.). Particulars: in vivo, po. Format: ADME, organism-based.

Molecules are shown by their SMILES. In brackets after ≈: the same amount, converted by molar mass. Bounds are passed on as bounds.

A word on the MIC: it is the lowest concentration that inhibits growth of the organism. With `C=CCO/N=C1\CN(c2c(F)cc3c(=O)c(C(=O)O)cn(C4CC4)c3c2F)CC1N` (stereo not drawn), the MIC is 0.031 µg/mL (≈ 0.0741 µM) in series [1]; ≤ 0.008 µg/mL against Bacillus subtilis; 0.13 µg/mL (≈ 0.311 µM) against Citrobacter koseri; 0.031 µg/mL (≈ 0.0741 µM) in the series on Escherichia coli [2]; ≤ 0.008 µg/mL against Escherichia coli [3]; 0.063 µg/mL (≈ 0.151 µM) against Escherichia coli [4]. Moreover, the MIC with Escherichia coli [5] is 0.5 µg/mL (≈ 1.2 µM); in the series on Enterobacter cloacae it was 0.031 µg/mL (≈ 0.0741 µM); in the series with Klebsiella aerogenes, 0.25 µg/mL (≈ 0.598 µM); with Micrococcus luteus, 0.25 µg/mL (≈ 0.598 µM); against Pseudomonas aeruginosa it was 2 µg/mL (≈ 4.78 µM); against Salmonella typhimurium, 0.25 µg/mL (≈ 0.598 µM). The MIC in series [6] was 2 µg/mL (≈ 4.78 µM); in [7], 0.016 µg/mL (≈ 0.0382 µM); against Staphylococcus aureus [8], 2 µg/mL (≈ 4.78 µM); in the series on Staphylococcus aureus [9], 0.031 µg/mL (≈ 0.0741 µM); in the series with Staphylococcus aureus [10], 0.016 µg/mL (≈ 0.0382 µM).

For the molecule `CO/N=C1\CN(c2nc3c(cc2F)c(=O)c(C(=O)O)cn3C2CC2)CC1N` (stereo not drawn), the MIC in series [1] was 0.063 µg/mL (≈ 0.168 µM); in the series on Bacillus subtilis it was ≤ 0.008 µg/mL; against Citrobacter koseri, 0.063 µg/mL (≈ 0.168 µM); in the series on Escherichia coli [2], ≤ 0.008 µg/mL; in the series on Escherichia coli [3], ≤ 0.008 µg/mL; against Escherichia coli [4], 0.063 µg/mL (≈ 0.168 µM). Besides, the minimal inhibitory concentration (MIC) against Escherichia coli [5] was 1 µg/mL (≈ 2.66 µM); against Enterobacter cloacae, 0.016 µg/mL (≈ 0.0426 µM); against Klebsiella aerogenes, 0.25 µg/mL (≈ 0.666 µM); with Micrococcus luteus, 1 µg/mL (≈ 2.66 µM); in the series on Pseudomonas aeruginosa, 2 µg/mL (≈ 5.33 µM); in the series with Salmonella typhimurium, 0.13 µg/mL (≈ 0.346 µM). Further, the MIC in series [6] amounted to 8 µg/mL (≈ 21.3 µM); in [7], 0.063 µg/mL (≈ 0.168 µM); against Staphylococcus aureus [8], 8 µg/mL (≈ 21.3 µM); in the series with Staphylococcus aureus [9], 0.063 µg/mL (≈ 0.168 µM); against Staphylococcus aureus [10], 0.063 µg/mL (≈ 0.168 µM).

For orientation: Tmax means the time at which the peak concentration occurs. Broadly, the Cmax is the maximum level reached in the sampled fluid or tissue. Broadly, the AUC is the area under the concentration-time curve, a measure of exposure. Read a high AUC as high exposure. The term ED50 denotes the midpoint of the dose-response relation. A low value points to an effect at a small dose. Consider `O=C(O)c1cn(C2CC2)c2cc(N3CCNCC3)c(F)cc2c1=O` [CIPROFLOXACIN], for which the Tmax in series [11] came to 6.6 min; in series [16] it was 67.2 min. The figures for the Cmax (in series [12]; in the series “in vivo [17]”) were 900 ng/mL and 910 ng/mL, respectively. In addition, the AUC is 2590 ng·h/mL in [13] and 4540 ng·h/mL in the series “in vivo [18]” (in vivo). Also, the MIC in series [1] was 0.25 µg/mL (≈ 0.754 µM); in the series with Bacillus subtilis, 0.031 µg/mL (≈ 0.0936 µM); with Citrobacter koseri it was 0.016 µg/mL (≈ 0.0483 µM); with Escherichia coli [2], ≤ 0.008 µg/mL; in the series with Escherichia coli [3] it was ≤ 0.008 µg/mL; in the series with Escherichia coli [5], 0.13 µg/mL (≈ 0.392 µM). Further, the MIC with Klebsiella aerogenes came out at 0.13 µg/mL (≈ 0.392 µM); in the series with Micrococcus luteus it was 4 µg/mL (≈ 12.1 µM); against Pseudomonas aeruginosa, 0.13 µg/mL (≈ 0.392 µM); with Salmonella typhimurium, 0.031 µg/mL (≈ 0.0936 µM); in series [6] it was 128 µg/mL (≈ 386 µM); in series [7] it was 0.13 µg/mL (≈ 0.392 µM). Moreover, the MIC came out at 128 µg/mL (≈ 386 µM) in the series with Staphylococcus aureus [8], 0.25 µg/mL (≈ 0.754 µM) with Staphylococcus aureus [9] and 0.25 µg/mL (≈ 0.754 µM) against Staphylococcus aureus [10]. Besides, the values for the ED50 in the series on Mus musculus [14] and in the series on Mus musculus [15] were 3.11 mg/kg and 7.46 mg/kg, respectively.

The half-life is the time needed for the level to fall by half in the phase considered. A higher half-life goes with slow decline. The term bioavailability denotes dose-corrected exposure relative to a reference, in per cent. Low values mean little systemic uptake, high ones much systemic uptake. For `CO/N=C1\CN(c2c(F)cc3c(=O)c(C(=O)O)cn(C4CC4)c3c2F)CC1N` (stereo not drawn), the Tmax was determined as 10.8 min in series [11] and 13.8 min in series [16]. Moreover, the half-life in series [19] is 140 min; in series [21], 311 min. Moreover, the bioavailability in series [20] and in [22] was > 100% each time. For the same molecule, the Cmax in series [12] stood at 22800 ng/mL; in “in vivo [17]” it was 3440 ng/mL. The area under the curve (AUC) is 179000 ng·h/mL in [13] and 12900 ng·h/mL in the series “in vivo [18]” (plasma). For the same molecule, the MIC was 0.016 µg/mL (≈ 0.0408 µM) in series [1]; ≤ 0.008 µg/mL in the series with Bacillus subtilis; 0.063 µg/mL (≈ 0.161 µM) against Citrobacter koseri; ≤ 0.008 µg/mL in the series with Escherichia coli [2]; ≤ 0.008 µg/mL against Escherichia coli [3]; 0.031 µg/mL (≈ 0.079 µM) in the series on Escherichia coli [4]. Also, the MIC in the series with Escherichia coli [5] is 0.25 µg/mL (≈ 0.637 µM); with Enterobacter cloacae it was ≤ 0.008 µg/mL; with Klebsiella aerogenes, 0.13 µg/mL (≈ 0.331 µM); with Micrococcus luteus it was 0.13 µg/mL (≈ 0.331 µM); against Pseudomonas aeruginosa, 1 µg/mL (≈ 2.55 µM); with Salmonella typhimurium it was 0.063 µg/mL (≈ 0.161 µM). The MIC in series [6] is 2 µg/mL (≈ 5.1 µM); in [7] it was 0.016 µg/mL (≈ 0.0408 µM); with Staphylococcus aureus [8], 2 µg/mL (≈ 5.1 µM); against Staphylococcus aureus [9], 0.016 µg/mL (≈ 0.0408 µM); in the series on Staphylococcus aureus [10] it was ≤ 0.008 µg/mL. In addition, the ED50 is 9.69 mg/kg in the series with Mus musculus [14] and 0.87 mg/kg in the series on Mus musculus [15].

As for `CO/N=C1/CN(c2cc3c(cc2F)c(=O)c(C(=O)O)cn3C2CC2)CC1N` (stereo not drawn), the MIC in series [1] was 0.031 µg/mL (≈ 0.0828 µM); in the series with Bacillus subtilis, ≤ 0.008 µg/mL; in the series on Citrobacter koseri, 0.031 µg/mL (≈ 0.0828 µM); in the series with Escherichia coli [2], 0.016 µg/mL (≈ 0.0427 µM); in the series on Escherichia coli [3], ≤ 0.008 µg/mL; against Escherichia coli [4] it was 0.031 µg/mL (≈ 0.0828 µM). Also, the MIC against Escherichia coli [5] is 0.5 µg/mL (≈ 1.34 µM); in the series on Enterobacter cloacae, ≤ 0.008 µg/mL; in the series with Klebsiella aerogenes it was 0.25 µg/mL (≈ 0.668 µM); with Micrococcus luteus, 0.25 µg/mL (≈ 0.668 µM); in the series with Pseudomonas aeruginosa it was 1 µg/mL (≈ 2.67 µM); in the series with Salmonella typhimurium it was 0.13 µg/mL (≈ 0.347 µM). For the same molecule, the MIC was 16 µg/mL (≈ 42.7 µM) in series [6]; 0.031 µg/mL (≈ 0.0828 µM) in [7]; 32 µg/mL (≈ 85.5 µM) in the series on Staphylococcus aureus [8]; 0.031 µg/mL (≈ 0.0828 µM) in the series with Staphylococcus aureus [9]; 0.016 µg/mL (≈ 0.0427 µM) with Staphylococcus aureus [10].
